Laboratory results taken from patent US7419981B2, “Synergistic combinations of an alpha-2-delta ligand and a cGMP phosphodieterse 5 inhibitor” (Pfizer Inc., priority 2002, dated 2008).
Where a name gives a salt, the structure may show the parent alone.

How the values were obtained:
[1] = system: CCI-induced static allodynia; test: CCI-induced static allodynia, paw withdrawal threshold to von Frey hairs; type: in vivo, rat; settings: for time of peak antiallodynic actions: post administration, CCI-induced static model; for blockade of static allodynia: alone; for minimum effective dose (MED), blockade of maintenance of static allodynia: administered alone, gabapentin p.o., sildenafil s.c.
Protocol: Male Sprague Dawley rats (200-250 g), obtained from Charles River, (Margate, Kent, U.K.) were housed in groups of 6. All animals were kept under a 12 h light/dark cycle (lights on at 07 h 00 min) with food and water ad libitum. All experiments were carried out by an observer unaware of drug treatments.
Animals were anaesthetised with isoflurane. The sciatic nerve was ligated as previously described by Bennett and Xie, 1988. Animals were placed on a homeothermic blanket for the duration of the procedure. After surgical preparation the common sciatic nerve was exposed at the middle of the thigh by blunt dissection through biceps femoris. Proximal to the sciatic trifurcation, about 7 mm of nerve was freed of adhering tissue and 4 ligatures (4-0 silk) were tied loosely around it with about 1 mm spacing. The incision was closed in layers and the wound treated with topical antibiotics.
Dose-responses to gabapentin and sildenafil were first performed alone in the CCI model. Combinations were examined following a fixed ratio design. A dose-response to each fixed dose ratio of the combination was performed. On each test day, baseline paw withdrawal thresholds (PWT) to von Frey hairs and paw withdrawal latencies (PWL) to a cotton bud stimulus were determined prior to drug treatment. Gabapentin was administered p.o. directly followed by s.c. administration of sildenafil and PWT and PWL re-examined for up to 5 h. The data are expressed at the 2 h time point for both the static and dynamic data as this timepoint represent the peak antiallodynic effects.
Static allodynia was measured using Semmes-Weinstein von Frey hairs (Stoelting, Illinois, U.S.A.). Animals were placed into wire mesh bottom cages allowing access to the underside of their paws. Animals were habituated to this environment prior to the start of the experiment. Static allodynia was tested by touching the plantar surface of the animals right hind paw with von Frey hairs in ascending order of force (0.7, 1.2, 1.5, 2, 3.6, 5.5, 8.5, 11.8, 15.1 and 29 g) for up to 6 sec. Once a withdrawal response was established, the paw was re-tested, starting with the next descending von Frey hair until no response occurred. The highest force of 29 g lifted the paw as well as eliciting a response, thus represented the cut off point. The lowest amount of force required to elicit a response was recorded as the PWT in grams.

[2] = system: CCI-induced dynamic allodynia; test: CCI-induced dynamic allodynia, paw withdrawal latency to cotton bud stimulus; type: in vivo, rat; settings: for blockade of dynamic allodynia: alone; for minimum effective dose (MED), blockade of maintenance of dynamic allodynia: administered alone, gabapentin p.o., sildenafil s.c.; for time of peak antiallodynic actions: post administration, CCI-induced dynamic model
Protocol: Male Sprague Dawley rats (200-250 g), obtained from Charles River, (Margate, Kent, U.K.) were housed in groups of 6. All animals were kept under a 12 h light/dark cycle (lights on at 07 h 00 min) with food and water ad libitum. All experiments were carried out by an observer unaware of drug treatments. Animals were anaesthetised with isoflurane. The sciatic nerve was ligated as previously described by Bennett and Xie, 1988. Animals were placed on a homeothermic blanket for the duration of the procedure. After surgical preparation the common sciatic nerve was exposed at the middle of the thigh by blunt dissection through biceps femoris. Proximal to the sciatic trifurcation, about 7 mm of nerve was freed of adhering tissue and 4 ligatures (4-0 silk) were tied loosely around it with about 1 mm spacing. The incision was closed in layers and the wound treated with topical antibiotics. […] Combinations were examined following a fixed ratio design. A dose-response to each fixed dose ratio of the combination was performed. On each test day, baseline paw withdrawal thresholds (PWT) to von Frey hairs and paw withdrawal latencies (PWL) to a cotton bud stimulus were determined prior to drug treatment. […] Dynamic allodynia was assessed by lightly stroking the plantar surface of the hind paw with a cotton bud. Care was taken to perform this procedure in fully habituated rats that were not active to avoid recording general motor activity. At least three measurements were taken at each time point the mean of which represented the paw withdrawal latency (PWL). […] Thus 15 s effectively represents no withdrawal. A withdrawal response was often accompanied with repeated flinching or licking of the paw. Dynamic allodynia was considered to be present if animals responded to the cotton stimulus before 8 s of stroking.

[3] = system: CCI-induced static allodynia; test: CCI-induced static allodynia, paw withdrawal threshold to von Frey hairs; type: in vivo, rat; settings: Table 1; ratio 1:0, pregabalin 30 mg/kg alone

## CCC[C@@H](C)C[C@H](N)CC(=O)O.Cl
other
  melting point: 142.5 to 142.7 °C

## CCCC(C)(C)CC(CN)C(=O)O.Cl (centres unmarked)
other
  melting point: 229.5 to 231 °C

## CCCC[C@@H](C)C[C@H](N)CC(=O)O (as salt: hydrochloride)
other
  melting point: 142.5 to 143.3 °C

## CCC[C@@H](C)C[C@H](CN)C(=O)O (as salt: hydrochloride)
other
  melting point: 226.3 to 228 °C

## CCCC(C)(C)C[C@H](N)CC(=O)O (as salt: hydrochloride) (hydrate or solvate)
other
  melting point: 194.2 to 195.2 °C

## CCCOc1ccc(S(=O)(=O)N2CCN(CC)CC2)cc1-c1nc2c(CC)n(Cc3ccccn3)nc2c(=O)[nH]1 [Compound AA, 3-Ethyl-5-[5-(4-ethyl-piperazine-1-sulfonyl)-2-propoxy-phenyl]-2-pyridin-2-ylmethyl-2,6-dihydro-pyrazolo[4,3-d]pyrimidin-7-one]
[1]; Table 2, ratio 0:1, 30 mg/kg alone (dose column headed Sildenafil)
  % reversal of allodynia: 50%
[1]
  time of peak antiallodynic actions: 2 h

## NCC1(CC(=O)O)CCCCC1 [Gabapentin, 1-(aminomethyl)-cyclohexylacetic acid]
[2]; 100 mg/kg p.o.
  blockade of dynamic allodynia: complete blockade
[2]
  minimum effective dose (MED), blockade of maintenance of dynamic allodynia: 10 mg/kg
  time of peak antiallodynic actions: 2 h
[1]; 100 mg/kg p.o.
  blockade of static allodynia: complete blockade
[1]; Table 2, ratio 1:0, gabapentin 100 mg/kg alone
  % reversal of allodynia: 100%
[1]
  minimum effective dose (MED), blockade of maintenance of static allodynia: 10 mg/kg
  time of peak antiallodynic actions: 2 h

## CC(C)C[C@H](CN)CC(=O)O [Pregabalin, (S)-(+)-4-amino-3-(2-methylpropyl)butanoic acid]
[1]
  time of peak antiallodynic actions: 2 h
[3]
  % reversal of allodynia: 100%

## CCCc1nn(C)c2c(=O)[nH]c(-c3cc(S(=O)(=O)N4CCN(C)CC4)ccc3OCC)nc12 [Sildenafil, 5-[2-ethoxy-5-(4-methyl-1-piperazinylsulphonyl)phenyl]-1-methyl-3-n-propyl-1,6-dihydro-7H-pyrazolo[4,3-d]pyrimidin-7-one]
[2]; 30 mg/kg s.c. (MED)
  blockade of dynamic allodynia: 25%
[2]
  minimum effective dose (MED), blockade of maintenance of dynamic allodynia: 30 mg/kg
  time of peak antiallodynic actions: 2 h
[1]; 30 mg/kg s.c.
  blockade of static allodynia: ~60%
[1]; Table 1, ratio 0:1, sildenafil 30 mg/kg alone
  % reversal of allodynia: 50%
[1]
  minimum effective dose (MED), blockade of maintenance of static allodynia: 10 mg/kg
  time of peak antiallodynic actions: 2 h
